Measured values published in US5089520A, “Method of inhibiting virus” (priority 1990, dated 1992).
Read-outs that look alike come from different tables or passages of the source.

Assays:
in vitro = assay type: cell-based, human; set-up: key to T-cells Control (score): 0: complete CPE; ±: most cells dead; 1+: about 1/4 of cells alive; 2+: about 1/2 of cells alive; 3+: about 3/4 of cells alive; 4+: all cells appear alive; conditions: human, leukemic t-cell line; same test protocol as Table I; read-out: toxic at (concentration)
Method: (§1) After a suitable period of incubation, the cultures are scored for the presence of so-called syncytial cells (giant cells). Typical examples of such a test for the evaluation of inhibitors of HIV have been disclosed by Fung et al., Bio/Technology 5, 940-946 (1987); Tyms et al., Lancet, Oct. 31, 1987, pp. 1025-1026; Gruters et al., Nature 330, 74-77 (1987); and Walker et al., Proc Natl. Acad. Sci. USA 84, 8120-8124 (1987).
(§2) In the present case, a human leukemic T-cell line was used which is described by Karpas, Leuk. Res. 1, 35-49 (1977). These cells were seeded into microtiter wells at a concentration of 5×10^3 cells per 0.2 ml of culture medium in each well. RPMI-1640 supplemented with 10% fetal calf serum was used as the culture medium. Each of the test compounds was added to either 4 or 6 wells of the microtiter plate. Two or three of the wells were infected with about 10^3 HIV-1 particles per well and two or three other wells were similarly infected with HV-2 particles. During the following 3 weeks, with a twice weekly change of medium containing the corresponding test compounds, the infected cells were monitored for the appearance of syncytial formations (giant cells) and eventual cytopathic effect (CPE). The non-infected cells were monitored for the possible cytotoxic effect of the test compounds. Likewise, the rate of growth was estimated in relation to growth of the control cells. The cultures were scored on a scale from 0 to 4+ by microscopic examination on the following basis:
(§3) 1+=about 1/4 of cells alive
(§4) 2+=about 1/2 of cells alive
(§5) 3+=about 3/4 of cells alive
(§6) 4+=all cells appear alive

HIV [1] = conditions: literature, cited from earlier work; for inhibition of HIV / cytopathic effect (in words): in vitro
[2] = test system: human leukemic T-cell line; assay: in vitro; assay type: cell-based; set-up: key to T-cells Control (score): 0: complete CPE; ±: most cells dead; 1+: about 1/4 of cells alive; 2+: about 1/2 of cells alive; 3+: about 3/4 of cells alive; 4+: all cells appear alive; conditions: control cells, 3 weeks
Method: as §1, §2, §3, §4, §5, §6

HIV [3] = assay: Anti-HIV activity, CPE reduction in HIV infected T-lymphocytes (Example 14, Table II); assay type: cell-based; conditions: Human immunodeficiency virus 1, T-lymphocyte; for activity at 130 µg/mL: dosage 0.13 mg/ml; for activity at 100 µg/mL: dosage 0.1 mg/ml
Method: (§7) Further testing of compounds 1 to 12 for inhibition of HIV replication was carried out to confirm the results of Example 13. To discriminate between specific anti-HIV activity and cytotoxicity, the effects of these compounds on HIV infected and non-infected T-lymphocytes were assessed in parallel. Using the T-cell line and cell free suspensions of HIV prepared from infected cultures, as in Example 13, the concentration of infectious particles (TCID, tissue culture infectious dose) was estimated using an end-point titration where the number of infectious HIV particles in each preparation was determined by the highest dilution which contained infectious HIV, as detected by syncytial formation, cytotoxicity and HIV antigen synthesis after 10 days of culture with 10^4 T-45 cells. Stock solutions of all compounds were prepared by dissolving each compound at a concentration of 1 mg/ml in growth medium. These solutions were filtered and sterilised (0.22 μm). Initially, each compound was tested at concentrations of 0.1 mg/ml and 0.5 mg/ml.
(§8) The following Table II sets forth the cytotoxic activity (% cell death) and the anti-HIV activity (% cytopathic effect, CPE, reduction), for these compounds.

[4] = Cytotoxic activity in non-infected T-lymphocytes (Example 14, Table II); assay type: cell-based; conditions: human, read-out: Cytotoxic Activity (% cell death)
Method: as §7, §8

HIV [5] = assay: In vitro HIV replication / cytopathic effect assay, HIV-infected T-cells scored 0 to 4+ (Example 13, Table I); assay type: cell-based; set-up: key to T-cells HIV-infected (score): 0: complete CPE; ±: most cells dead; 1+: about 1/4 of cells alive; 2+: about 1/2 of cells alive; 3+: about 3/4 of cells alive; 4+: all cells appear alive; conditions: for HIV inhibition score (inactive, scored as zero): above test protocol (Example 13), concentration not given
Method: as §1, §2, §3, §4, §5, §6

mannosidase I = conditions: literature; cited from earlier work
α-glucosidase I = conditions: literature; cited from earlier work
HIV virons = conditions: literature; cited from earlier work
glycosidase = conditions: literature; cited from earlier work
α-glycosidase = conditions: literature; cited from earlier work
[6] = compound concentration 0.13 mg/ml
[7] = compound concentration 0.3 mg/ml
[8] = compound concentration 0.1 mg/ml

In the case of `Cc1cn([C@H]2C[C@H](N=[N+]=[N-])[C@@H](CO)O2)c(=O)[nH]c1=O` [AZT, 3'-azido-3'-deoxythymidine, reference compound], the MCC (in vitro) is listed as 0.01 µg/mL and the “inhibition of HIV / cytopathic effect (in words)” value (HIV [1]) is listed as “shown to inhibit replication of the virus in vitro”.
For `OC[C@H]1NC[C@H](O)[C@@H]1O` [Compound 4, 1,4-Dideoxy-1,4-imino-D-ribitol], the “T-cells Control (score)” value [2, 6] was 4+, the activity at 130 µg/mL (HIV [3]) was 50% and the cytotoxicity ([4]; dosage 0.13 mg/ml) was 0%.
In the case of `OC[C@@H]1NC[C@H](O)[C@H]1O` [Compound 2, 1,4-Dideoxy-1,4-imino-L-arabinitol], the “T-cells HIV-infected (score)” value (HIV [5]; compound concentration 0.3 mg/ml, 3 weeks, HIV-1 and HIV-2) is reported as 4+, the “T-cells Control (score)” value [2, 7] is reported as 4+ and the activity at 100 µg/mL (HIV [3]) is reported as 50%. For the same compound, the activity at 500 µg/mL (HIV [3]; dosage 0.5 mg/ml) was 100%, the cytotoxicity ([4]; dosage 0.1 mg/ml) was 0% and the “inhibition of HIV / cytopathic effect (in words)” value (HIV [1]) was “strong HIV inhibitory activity”.
For `OC[C@H]1NC[C@@H](O)[C@@H](O)[C@@H]1O` [deoxymannojirimycin (DMJ), 1,5-dideoxy-1,5-imino-D-mannitol], the “effect on HIV / virion infectivity (in words)” value (HIV [1]) is listed as “absence of effect” and the “mannosidase I inhibition (in words)” value (mannosidase I) is listed as “mannosidase I inhibitor”.
For `O[C@H]1[C@H](O)[C@@H](O)CN2CC[C@H](O)[C@H]12` [castanospermine], the “inhibition of HIV / cytopathic effect (in words)” value (HIV [1]) is listed as “inhibition of the cytopathic effect (CPE)”, the “effect on HIV / virion infectivity (in words)” value (HIV [1]) is listed as “only a modest reduction in virion infectivity” and the “glucosidase I inhibitory activity (in words)” value (α-glucosidase I) is listed as “α-glucosidase I inhibitor”. For the same compound, the “effect on glycosylation of HIV virons and entry into target cells (in words)” value (HIV virons) was “interfere with normal glycosylation of HIV virons, thereby altering the envelope glycoprotein and preventing entry of HIV into target cells”.
With `CN1C[C@H](O)[C@H](O)[C@H]1CO` [Compound 6] the “T-cells Control (score)” value [2, 8] was 4+, the activity at 100 µg/mL (HIV [3]) was 25% and the cytotoxicity ([4]; dosage 0.1 mg/ml) was 0%.
With `OC[C@H]1[C@H](O)[C@H](O)CN1Cc1ccccc1` [Compound 7, 1,4-dideoxy-1,4-benzylimino-L-ribitol] the “T-cells Control (score)” value [2, 8] was 4+, the activity at 100 µg/mL (HIV [3]) was 25% and the cytotoxicity ([4]; dosage 0.1 mg/ml) was 0%.
For `OC[C@@H]1[C@@H](O)[C@@H](O)CN1Cc1ccccc1` [1,4-dideoxy-1,4-benzylimino-D-ribitol, 1,4-Dideoxy-1,4-benzylimino-D-ribitol], the “HIV inhibition score (inactive, scored as zero)” value (HIV [5]) was “zero”.
For `OC[C@H]1NC[C@@H](O)[C@@H]1O` [D-enantiomer], the “inhibition of HIV / cytopathic effect (in words)” value (HIV [1]) is given as “very little effect on HIV replication”.
With `CN1C[C@@H](O)[C@@H](O)[C@H](O)[C@H]1CO` [Compound 9, N-Methyl derivative of deoxymannojirimycin] the “T-cells Control (score)” value [2, 7] was 4+, the activity at 300 µg/mL (HIV [3]; dosage 0.3 mg/ml) was 25% and the cytotoxicity ([4]; dosage 0.3 mg/ml) was 0%.
In the case of `CN1[C@H](CO)[C@@H](O)[C@H](O)[C@H]1CO` [Compound 1, N-Methyl derivative of dihydroxymethyldihydroxypyrrolidine], the “T-cells Control (score)” value [2, 8] is reported as 4+, the activity at 100 µg/mL (HIV [3]) is reported as 25% and the cytotoxicity ([4]; dosage 0.1 mg/ml) is reported as 0%.
For `OC[C@H]1NC[C@H](O)[C@@H](O)[C@@H]1O` [deoxynojirimycin (DNJ), deoxynojirimycin], the “effect on HIV / virion infectivity (in words)” value (HIV [1]) is listed as “positive effect” and the “glycosidase inhibition (in words)” value (glycosidase) is listed as “glycosidase inhibitor”.
For `OC[C@@H]1NC[C@@H](O)[C@H]1O` [Compound 3, 1,4-Dideoxy-1,4-imino-L-ribitol], the “T-cells Control (score)” value [2, 6] was 4+, the activity at 130 µg/mL (HIV [3]) was 25% and the cytotoxicity ([4]; dosage 0.13 mg/ml) was 0%.
For `C[C@@H]1NC[C@@H](O)[C@H](O)[C@@H]1O` [1,5-dideoxy-1,5-imino-L-fucitol, 1,5-Dideoxy-1,5-imino-L-fucitol], the “HIV inhibition score (inactive, scored as zero)” value (HIV [5]) was “zero”.
In the case of `CN1C[C@H](O)[C@@H](O)[C@H](O)[C@H]1CO` [N-methyl derivative of deoxynojirimycin], the “inhibition of HIV / cytopathic effect (in words)” value (HIV [1]) is listed as “having activity against HIV” and the “glucosidase I inhibitory activity (in words)” value (α-glucosidase I) is listed as “gluosidase I inhibitory activity”.
With `COC(=O)CCCCCN1C[C@@H](O)[C@H](O)[C@H](O)[C@@H]1C` [Compound 12, 1,5-Dideoxy-1,5-imino-[N-ω-methyl caproate]-L-fucitol] the “T-cells Control (score)” value ([2]; compound concentration 0.03 mg/ml) was 4+, the activity at 100 µg/mL (HIV [3]) was 75% and the activity at 250 µg/mL (HIV [3]; dosage 0.25 mg/ml) was 90%. The cytotoxicity ([4]; dosage 0.1 mg/ml) was 0%.
For `OC[C@@H](O)[C@@H]1NC[C@@H](O)[C@H]1O` [Compound 8, 1,4-Dideoxy-1,4-imino-D-talitol], the “T-cells Control (score)” value ([2]; compound concentration 0.16 mg/ml) was 4+, the activity at 160 µg/mL (HIV [3]; dosage 0.16 mg/ml) was 25% and the cytotoxicity ([4]; dosage 0.16 mg/ml) was 0%.
In the case of `O[C@@H]1[C@@H](O)[C@@H](O)CN2CC[C@H](O)[C@@H]12` [L-1,6-diepicastanospermine], the “inhibition of HIV / cytopathic effect (in words)” value (HIV [1]) is listed as “neither the epimer L-1,6-diepicastanospermine nor the stereoisomer of castanospermine, L-6-epicastanospermine, were found to be inhibitory”.
In the case of `O[C@@H]1[C@@H](O)[C@@H](O)CN2CC[C@@H](O)[C@@H]12` [L-6-epicastanospermine], the “inhibition of HIV / cytopathic effect (in words)” value (HIV [1]) is listed as “neither the epimer L-1,6-diepicastanospermine nor the stereoisomer of castanospermine, L-6-epicastanospermine, were found to be inhibitory”.
In the case of `C[C@@H]1NC(=O)[C@@H](O)[C@H](O)[C@@H]1O` [Compound 10, 1,5-dideoxy-1,5-imino-L-fuconolactam], the “T-cells Control (score)” value [2, 8] is reported as 4+, the activity at 100 µg/mL (HIV [3]) is reported as 50% and the cytotoxicity ([4]; dosage 0.1 mg/ml) is reported as 25%.
For `OC[C@H]1NCC[C@@H](O)[C@@H]1O` [fagomine], the “inhibition of HIV / cytopathic effect (in words)” value (HIV [1]) is given as “no HIV inhibition was observed” and the “α-glycosidase inhibitory activity (in words)” value (α-glycosidase) is given as “α-glycosidase inhibitory activity”.
In the case of `OC[C@@H]1[C@@H](O)[C@H](O)[C@@H](O)CN1Cc1ccccc1` [N-benzyl derivative], the “inhibition of HIV / cytopathic effect (in words)” value (HIV [1]) is given as “Neither the azofuranose analog of glucose nor the N-benzyl derivative were found to have an effect on CPE”.
With `C[C@H]1[C@@H](O)[C@@H](O)[C@H](O)CN1C` [Compound 11, 1,5-Dideoxy-1,5-imino-[N-methyl]-L-fucitol] the “T-cells Control (score)” value [2, 8] was 4+, the activity at 100 µg/mL (HIV [3]) was 25% and the cytotoxicity ([4]; dosage 0.1 mg/ml) was 0%.
In the case of `CN1C[C@H](O)[C@@H](O)[C@@H]1CO` [Compound 5], the “T-cells Control (score)” value [2, 8] is reported as 4+, the activity at 100 µg/mL (HIV [3]) is reported as 25% and the cytotoxicity ([4]; dosage 0.1 mg/ml) is reported as 0%.
